# Assay results as given in patent publication US8802597B2, “Herbicidal pyrimidines” (E I du Pont de Nemours and Company, priority 2003, dated 2014).
# How the values were obtained:
# Type in all cases: in vivo
# [1] = system: Russian thistle (Salsola kali); assay: Test D pre/postemergence; conditions: scale 0 to 100 (100 = complete control)
# How it was run: (§1)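 Weed and cereal species treated preemergence, or postemergence at 2–18 cm (1- to 4-leaf stage), with test chemicals in non-phytotoxic solvent with surfactant. Kept in controlled growth environment 15 to 25 days, then rated visually against controls on a 0 (no effect) to 100 (complete control) scale.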
# [2] = system: catchweed bedstraw (galium; Galium aparine); assay: Test D pre/postemergence; conditions: scale 0 to 100 (100 = complete control)
# How it was run: as §1
# [3] = system: common chickweed (Stellaria media); assay: Test D pre/postemergence; conditions: scale 0 to 100 (100 = complete control)
# How it was run: as §1
# [4] = system: kochia (Kochia scoparia); assay: Test D pre/postemergence; conditions: scale 0 to 100 (100 = complete control)
# How it was run: as §1
# [5] = system: lambsquarters (Chenopodium album); assay: Test D pre/postemergence; conditions: scale 0 to 100 (100 = complete control)
# How it was run: as §1
# [6] = system: pigweed (Amaranthus retroflexus); assay: Test D pre/postemergence; conditions: scale 0 to 100 (100 = complete control)
# How it was run: as §1
# [7] = system: wheat (Triticum aestivum); assay: Test D pre/postemergence; conditions: scale 0 to 100 (100 = complete control)
# How it was run: as §1
# [8] = system: wild buckwheat (Polygonum convolvulus); assay: Test D pre/postemergence; conditions: scale 0 to 100 (100 = complete control)
# How it was run: as §1
# [9] = system: wild mustard (Sinapis arvensis); assay: Test D pre/postemergence; conditions: scale 0 to 100 (100 = complete control)
# How it was run: as §1
# [10] = system: Italian ryegrass (Lolium multiflorum); assay: Test G pre/postemergence
# Text: (§2) Seeds or nutlets of plant species selected from bermudagrass (Cynodon dactylon), Surinam grass (Brachiaria decumbens), large crabgrass (Digitaria sanguinalis), green foxtail (Setaria viridis), goosegrass (Eleusine indica), johnsongrass (Sorghum halepense), kochia (Kochia scoparia), pitted morningglory (Ipomoea lacunosa), purple nutsedge (Cyperus rotundus), common ragweed (Ambrosia elatior), black mustard (Brassica nigra), guineagrass (Panicum maximum), dallisgrass (Paspalum dilatatum), barnyardgrass (Echinochloa crus-galli), southern sandbur (Cenchrus echinatus), common sowthistle (Sonchus oleraceous), prickly sida (Sida spinosa), Italian ryegrass (Lolium multiflorum), common purslane (Portulaca oleracea), broadleaf signalgrass (Brachiaria platyphylla), common groundsel (Senecio vulgaris), common chickweed (Stellaria media), tropical spiderwort (Commelina benghalensis), annual bluegrass (Poa annua), downy bromegrass (Bromus tectorum), itchgrass (Rottboellia cochinchinensis), quackgrass (Elytrigia repens), Canada horseweed (Conyza canadensis), field bindweed (Convolvulus arvensis), spanishneedles (Bidens bipinnata), common mallow (Malva sylvestris), and Russian thistle (Salsola kali) were planted and treated preemergence with test chemicals formulated in a non-phytotoxic solvent mixture which included a surfactant.
# (§3) At the same time, plants selected from these weed species were treated with postemergence applications of some of the test chemicals formulated in the same manner. Plants ranged in height from 2 to 18 cm (1- to 4-leaf stage) for postemergence treatments. Treated plants and controls were maintained in a greenhouse for 12 to 21 days, after which time all species were compared to controls and visually evaluated.
# (§4) Plant response ratings, summarized in Table G, are based on a scale of 0 to 100 where 0 is no effect and 100 is complete control. A dash (-) response means no test result.
# [11] = system: downy bromegrass (Bromus tectorum); assay: Test G pre/postemergence
# Text: as §2, §3, §4
# [12] = system: johnsongrass (Sorghum halepense); assay: Test G pre/postemergence
# Text: as §2, §3, §4
# [13] = system: tropical spiderwort (Commelina benghalensis); assay: Test G pre/postemergence
# Text: as §2, §3, §4
# [14] = Postemergence, 250 g ai/ha, scale 0 to 100
# [15] = Postemergence, 500 g ai/ha, scale 0 to 100
# [16] = Postemergence, 62 g ai/ha, scale 0 to 100
# [17] = Postemergence, 125 g ai/ha, scale 0 to 100
# [18] = Postemergence, 375 g ai/ha, scale 0 to 100
# [19] = Preemergence, 62 g ai/ha, scale 0-100
# [20] = Preemergence, 125 g ai/ha, scale 0-100
# [21] = Preemergence, 250 g ai/ha, scale 0-100
# [22] = Preemergence, 500 g ai/ha, scale 0-100
# [23] = Preemergence, 500 g ai/ha, scale 0 to 100
structure (smiles),measurement,setting,value
"CCOC(=O)c1nc(C2CC2)nc(N)c1Br [Compound 1, ethyl 6-amino-5-bromo-2-cyclopropyl-4-pyrimidinecarboxylate]","Plant response rating, Russian Thistle","[1]; Postemergence, 16 g ai/ha",45
same,"Plant response rating, Russian Thistle","[1]; Postemergence, 31 g ai/ha",65
same,"Plant response rating, Russian Thistle","[1]; Postemergence, 62 g ai/ha",85
same,"Plant response rating, Russian Thistle","[1]; Postemergence, 125 g ai/ha",100
same,"Plant response rating, Russian Thistle","[1]; Preemergence, 16 g ai/ha",100
same,"Plant response rating, Russian Thistle","[1]; Preemergence, 31 g ai/ha",100
same,"Plant response rating, Russian Thistle","[1]; Preemergence, 62 g ai/ha",100
same,"Plant response rating, Russian Thistle","[1]; Preemergence, 125 g ai/ha",100
same,"Plant response rating, Galium","[2]; Postemergence, 16 g ai/ha",95
same,"Plant response rating, Galium","[2]; Postemergence, 31 g ai/ha",100
same,"Plant response rating, Galium","[2]; Postemergence, 62 g ai/ha",100
same,"Plant response rating, Galium","[2]; Postemergence, 125 g ai/ha",100
same,"Plant response rating, Galium","[2]; Preemergence, 16 g ai/ha",80
same,"Plant response rating, Galium","[2]; Preemergence, 31 g ai/ha",80
same,"Plant response rating, Galium","[2]; Preemergence, 62 g ai/ha",100
same,"Plant response rating, Galium","[2]; Preemergence, 125 g ai/ha",100
same,"Plant response rating, Chickweed","[3]; Postemergence, 16 g ai/ha",65
same,"Plant response rating, Chickweed","[3]; Postemergence, 31 g ai/ha",65
same,"Plant response rating, Chickweed","[3]; Postemergence, 62 g ai/ha",65
same,"Plant response rating, Chickweed","[3]; Postemergence, 125 g ai/ha",85
same,"Plant response rating, Chickweed","[3]; Preemergence, 16 g ai/ha",60
same,"Plant response rating, Chickweed","[3]; Preemergence, 31 g ai/ha",65
same,"Plant response rating, Chickweed","[3]; Preemergence, 62 g ai/ha",70
same,"Plant response rating, Chickweed","[3]; Preemergence, 125 g ai/ha",75
same,"Plant response rating, Kochia","[4]; Postemergence, 16 g ai/ha",85
same,"Plant response rating, Kochia","[4]; Postemergence, 31 g ai/ha",100
same,"Plant response rating, Kochia","[4]; Postemergence, 62 g ai/ha",100
same,"Plant response rating, Kochia","[4]; Postemergence, 125 g ai/ha",100
same,"Plant response rating, Kochia","[4]; Preemergence, 16 g ai/ha",65
same,"Plant response rating, Kochia","[4]; Preemergence, 31 g ai/ha",75
same,"Plant response rating, Kochia","[4]; Preemergence, 62 g ai/ha",100
same,"Plant response rating, Kochia","[4]; Preemergence, 125 g ai/ha",100
same,"Plant response rating, Lambsquarters","[5]; Postemergence, 16 g ai/ha",95
same,"Plant response rating, Lambsquarters","[5]; Postemergence, 31 g ai/ha",95
same,"Plant response rating, Lambsquarters","[5]; Postemergence, 62 g ai/ha",100
same,"Plant response rating, Lambsquarters","[5]; Postemergence, 125 g ai/ha",100
same,"Plant response rating, Lambsquarters","[5]; Preemergence, 16 g ai/ha",65
same,"Plant response rating, Lambsquarters","[5]; Preemergence, 31 g ai/ha",75
same,"Plant response rating, Lambsquarters","[5]; Preemergence, 62 g ai/ha",85
same,"Plant response rating, Lambsquarters","[5]; Preemergence, 125 g ai/ha",100
same,"Plant response rating, Pigweed","[6]; Postemergence, 16 g ai/ha",60
same,"Plant response rating, Pigweed","[6]; Postemergence, 31 g ai/ha",100
same,"Plant response rating, Pigweed","[6]; Postemergence, 62 g ai/ha",100
same,"Plant response rating, Pigweed","[6]; Postemergence, 125 g ai/ha",100
same,"Plant response rating, Pigweed","[6]; Preemergence, 16 g ai/ha",60
same,"Plant response rating, Pigweed","[6]; Preemergence, 31 g ai/ha",70
same,"Plant response rating, Pigweed","[6]; Preemergence, 62 g ai/ha",95
same,"Plant response rating, Pigweed","[6]; Preemergence, 125 g ai/ha",100
same,"Plant response rating, Wheat","[7]; Postemergence, 16 g ai/ha",40
same,"Plant response rating, Wheat","[7]; Postemergence, 31 g ai/ha",80
same,"Plant response rating, Wheat","[7]; Postemergence, 62 g ai/ha",90
same,"Plant response rating, Wheat","[7]; Postemergence, 125 g ai/ha",100
same,"Plant response rating, Wheat","[7]; Preemergence, 16 g ai/ha",35
same,"Plant response rating, Wheat","[7]; Preemergence, 31 g ai/ha",70
same,"Plant response rating, Wheat","[7]; Preemergence, 62 g ai/ha",70
same,"Plant response rating, Wheat","[7]; Preemergence, 125 g ai/ha",70
same,"Plant response rating, Buckwheat, Wild","[8]; Postemergence, 16 g ai/ha",50
same,"Plant response rating, Buckwheat, Wild","[8]; Postemergence, 31 g ai/ha",80
same,"Plant response rating, Buckwheat, Wild","[8]; Postemergence, 62 g ai/ha",80
same,"Plant response rating, Buckwheat, Wild","[8]; Postemergence, 125 g ai/ha",80
same,"Plant response rating, Buckwheat, Wild","[8]; Preemergence, 16 g ai/ha",45
same,"Plant response rating, Buckwheat, Wild","[8]; Preemergence, 31 g ai/ha",60
same,"Plant response rating, Buckwheat, Wild","[8]; Preemergence, 62 g ai/ha",70
same,"Plant response rating, Buckwheat, Wild","[8]; Preemergence, 125 g ai/ha",75
same,"Plant response rating, Mustard, Wild","[9]; Postemergence, 16 g ai/ha",60
same,"Plant response rating, Mustard, Wild","[9]; Postemergence, 31 g ai/ha",70
same,"Plant response rating, Mustard, Wild","[9]; Postemergence, 62 g ai/ha",70
same,"Plant response rating, Mustard, Wild","[9]; Postemergence, 125 g ai/ha",75
same,"Plant response rating, Mustard, Wild","[9]; Preemergence, 16 g ai/ha",50
same,"Plant response rating, Mustard, Wild","[9]; Preemergence, 31 g ai/ha",65
same,"Plant response rating, Mustard, Wild","[9]; Preemergence, 62 g ai/ha",70
same,"Plant response rating, Mustard, Wild","[9]; Preemergence, 125 g ai/ha",90
same,"Plant response rating, Ryegrass, Italian",[10]; [14],40
same,"Plant response rating, Ryegrass, Italian",[10]; [15],40
same,"Plant response rating, Ryegrass, Italian",[10]; [16],0
same,"Plant response rating, Ryegrass, Italian",[10]; [17],10
same,"Plant response rating, Ryegrass, Italian",[10]; [18],40
same,"Plant response rating, Ryegrass, Italian",[10]; [19],0
same,"Plant response rating, Ryegrass, Italian",[10]; [20],10
same,"Plant response rating, Ryegrass, Italian",[10]; [21],30
same,"Plant response rating, Ryegrass, Italian",[10]; [22],95
same,"Plant response rating, Ryegrass, Italian",[10]; [23],95
same,"Plant response rating, Bromegrass, Downy",[11]; [14],60
same,"Plant response rating, Bromegrass, Downy",[11]; [15],80
same,"Plant response rating, Bromegrass, Downy",[11]; [16],30
same,"Plant response rating, Bromegrass, Downy",[11]; [17],30
same,"Plant response rating, Bromegrass, Downy",[11]; [18],70
same,"Plant response rating, Bromegrass, Downy",[11]; [19],0
same,"Plant response rating, Bromegrass, Downy",[11]; [20],20
same,"Plant response rating, Bromegrass, Downy",[11]; [21],95
same,"Plant response rating, Bromegrass, Downy",[11]; [23],95
same,"Plant response rating, Bromegrass, Downy","[11]; Preemergence, 375 g ai/ha, scale 0 to 100",95
same,"Plant response rating, Johnsongrass",[12]; [14],95
same,"Plant response rating, Johnsongrass",[12]; [15],95
same,"Plant response rating, Johnsongrass",[12]; [16],70
same,"Plant response rating, Johnsongrass",[12]; [17],70
same,"Plant response rating, Johnsongrass",[12]; [18],95
same,"Plant response rating, Johnsongrass",[12]; [19],20
same,"Plant response rating, Johnsongrass",[12]; [20],40
same,"Plant response rating, Johnsongrass",[12]; [21],60
same,"Plant response rating, Johnsongrass",[12]; [22],75
same,"Plant response rating, Johnsongrass",[12]; [23],75
same,"Plant response rating, Spiderwort",[13]; [14],95
same,"Plant response rating, Spiderwort",[13]; [15],95
same,"Plant response rating, Spiderwort",[13]; [16],95
same,"Plant response rating, Spiderwort",[13]; [17],95
same,"Plant response rating, Spiderwort",[13]; [18],95
same,"Plant response rating, Spiderwort",[13]; [19],70
same,"Plant response rating, Spiderwort",[13]; [20],100
same,"Plant response rating, Spiderwort",[13]; [21],100
same,"Plant response rating, Spiderwort",[13]; [22],100
same,"Plant response rating, Spiderwort",[13]; [23],100
